In brackets after ≈: the same amount, converted by molar mass. Several values for one entry are separate records, joined by “and”; a condition that tells them apart may be missing. Equal values may be shown once. Blank lines part the entries; values can stand above or below the molecule they belong to.
Legend:
Assay in all cases: ≥ marks a high value that may be exact or a test limit, other limits are often not marked, values filed in µg/mL are converted to µM
[1] = test system: Mycobacterium tuberculosis H37Rv
[2] = test system: Escherichia coli DH5alpha
[3] = test system: Micrococcus luteus ATCC 4698
[4] = test system: Staphylococcus aureus ATCC 6538
[5] = test system: Staphylococcus epidermidis ATCC 12228
[6] = test system: Escherichia coli ATCC 11219
[7] = test system: Klebsiella pneumoniae ATCC 10031
[8] = test system: Pseudomonas aeruginosa ATCC 13388
[9] = test system: Salmonella enterica subsp. enterica serovar Typhimurium ATCC 14028
[10] = test system: Bacillus subtilis 168 HT
[11] = test system: Escherichia coli MG1655
[12] = test system: Bacillus subtilis ATCC 6633
[13] = test system: Escherichia coli ATCC 25922
[14] = test system: Pseudomonas aeruginosa ATCC BAA-427
[15] = test system: Staphylococcus aureus ATCC 25923
[16] = test system: Escherichia coli
[17] = test system: Listeria innocua
[18] = test system: Micrococcus luteus A270
[19] = test system: Salmonella enterica subsp. enterica serovar Enteritidis
[20] = test system: Candida albicans MDM8
[21] = test system: Escherichia coli SBS 363
[22] = test system: Micrococcus luteus
[23] = test system: Staphylococcus aureus

SMILES: CSCC[C@H](NC(=O)CNC(=O)[C@H](CC(C)C)NC(=O)[C@H](CCCN=C(N)N)NC(=O)[C@H](CCCN=C(N)N)NC(=O)[C@H](C)N)C(=O)N[C@@H](CC(N)=O)C(=O)N1CCC[C@H]1C(=O)N[C@@H](Cc1c[nH]c2ccccc12)C(=O)N[C@@H](CCCCN)C(=O)N[C@H](C(=O)N1CCC[C@H]1C(=O)N1CCC[C@H]1C(=O)N[C@@H](C)C(=O)N[C@@H](CCCCN)C(=O)N1CCC[C@H]1C(=O)N[C@@H](CCCCN)C(=O)NCC(=O)N[C@@H](CO)C(=O)N[C@@H](CCCCN)C(=O)O)[C@@H](C)O [ARRLGMNPWKTPPAKPKGSK]
MIC [1]: ≥ 90.1 µM

SMILES: CC(C)C[C@H](NC(=O)[C@H](CC(C)C)NC(=O)[C@H](CCCCN)NC(=O)[C@H](CO)NC(=O)[C@H](CC(C)C)NC(=O)[C@H](C)NC(=O)[C@H](CCCCN)NC(=O)[C@@H](NC(=O)[C@H](CC(C)C)NC(=O)[C@H](C)NC(=O)CNC(=O)[C@H](CC(C)C)NC(=O)[C@@H](N)Cc1ccccc1)C(C)C)C(=O)O [FLGALVKALSKLL]
MIC [2]: 21.9 µM (≈ 30 µg/mL)
MIC [3]: 3.64 µM (≈ 5 µg/mL)
MIC [4]: 5.1 µM (≈ 7 µg/mL)
MIC [5]: 8.01 µM (≈ 11 µg/mL)

SMILES: CC[C@H](C)[C@H](NC(=O)CN)C(=O)NCC(=O)N[C@@H](CCCCN)C(=O)N[C@@H](Cc1ccccc1)C(=O)N[C@@H](CC(C)C)C(=O)N[C@@H](CCCCN)C(=O)N[C@@H](CO)C(=O)N[C@@H](CCCCN)C(=O)NCC(=O)N[C@@H](CCCCN)C(=O)N[C@@H](Cc1ccccc1)C(=O)NCC(=O)N[C@@H](CCCCN)C(=O)N[C@@H](C)C(=O)O [GIGKFLKSKGKFGKA]
MIC [1]: ≥ 192 µM

SMILES: CC(C)C[C@H](NC(=O)[C@H](CC(C)C)NC(=O)[C@H](CCCN=C(N)N)NC(=O)[C@H](CCCN=C(N)N)NC(=O)[C@H](CCCCN)NC(=O)[C@H](C)NC(=O)[C@H](CCCCN)NC(=O)[C@@H](N)CCCCN)C(=O)N[C@@H](CCCCN)C(=O)N[C@@H](CCCCN)C(=O)O [KKAKRRLLKK]
MIC [10]: ≥ 101 µM
MIC [11]: ≥ 101 µM

SMILES: CC(C)C[C@H](NC(=O)[C@H](CC(=O)O)NC(=O)[C@H](CC(C)C)NC(=O)[C@H](CCCCN)NC(=O)[C@H](CC(C)C)NC(=O)[C@H](CC(=O)O)NC(=O)[C@H](CC(C)C)NC(=O)[C@H](CCCCN)NC(=O)[C@H](CC(C)C)NC(=O)[C@H](CC(=O)O)NC(=O)[C@H](CC(C)C)NC(=O)[C@@H](N)CCCCN)C(=O)O [KLDLKLDLKLDL]
MIC [12]: ≥ 100 µM
MIC [13]: > 100 µM
MIC [14]: ≥ 100 µM
MIC [15]: > 100 µM

SMILES: CC[C@H](C)[C@H](NC(=O)CNC(=O)[C@@H](NC(=O)[C@H](CCCCN)NC(=O)[C@@H](NC(=O)CNC(=O)[C@H](CC(C)C)NC(=O)[C@H](Cc1c[nH]c2ccccc12)NC(=O)[C@H](CCCN=C(N)N)NC(=O)[C@@H](N)CC(C)C)[C@@H](C)O)C(C)C)C(=O)N[C@@H](CC(C)C)C(=O)N[C@@H](CCCCN)C(=O)O [LRWLGTKVGILK]
MIC [10]: ≥ 92 µM
MIC [11]: ≥ 92 µM

SMILES: C[C@@H](O)[C@H](N)C(=O)N[C@@H](CO)C(=O)N[C@@H](CCCCN)C(=O)N[C@@H](Cc1ccc(O)cc1)C(=O)N[C@@H](CCCN=C(N)N)C(=O)O [TSKYR]
MIC [16]: 9 µM (≈ 5.88 µg/mL)
MIC [17]: 1 µM (≈ 0.654 µg/mL)
MIC [18]: 9 µM (≈ 5.88 µg/mL)
MIC [22]: 9 µM (≈ 5.88 µg/mL)
MIC [19]: 5 µM and 4.6 µM
MIC [23]: 1 µM (≈ 0.654 µg/mL)

Second part, the molecule after the results:

MIC [2]: 27.9 µM (≈ 40 µg/mL)
MIC [3]: 4.18 µM (≈ 6 µg/mL)
MIC [4]: 5.58 µM (≈ 8 µg/mL)
MIC [5]: 9.76 µM (≈ 14 µg/mL)
SMILES: CC(C)C[C@H](NC(=O)[C@H](CC(C)C)NC(=O)[C@H](CCCCN)NC(=O)[C@H](CO)NC(=O)[C@@H](NC(=O)[C@@H](NC(=O)[C@H](CCCCN)NC(=O)[C@H](Cc1ccccc1)NC(=O)[C@H](CC(C)C)NC(=O)[C@H](C)NC(=O)CNC(=O)[C@H](CC(C)C)NC(=O)[C@@H](N)Cc1ccccc1)C(C)C)C(C)C)C(=O)O [FLGALFKVVSKLL]

MIC [6]: 20 µM (≈ 25.7 µg/mL)
MIC [7]: 20 µM (≈ 25.7 µg/mL)
MIC [8]: 10 µM (≈ 12.8 µg/mL)
MIC [9]: 4 µM (≈ 5.14 µg/mL)
MIC [4]: 20 µM (≈ 25.7 µg/mL)
SMILES: CC[C@H](C)[C@H](NC(=O)CN)C(=O)N[C@@H](Cc1cnc[nH]1)C(=O)N[C@@H](CC(=O)O)C(=O)N[C@@H](C)C(=O)N[C@@H](CC(C)C)C(=O)N[C@@H](CCCCN)C(=O)N[C@@H](Cc1ccc(O)cc1)C(=O)NCC(=O)N[C@@H](CCCCN)C(=O)N1CCC[C@H]1C(=O)N[C@@H](CO)C(N)=O [GIHDALKYGKPS]

MIC [6]: ≥ 50 µM
MIC [7]: 30 µM (≈ 39 µg/mL)
MIC [8]: 30 µM (≈ 39 µg/mL)
MIC [9]: 10 µM (≈ 13 µg/mL)
MIC [4]: 10 µM (≈ 13 µg/mL)
SMILES: CC[C@H](C)[C@H](NC(=O)CN)C(=O)N[C@@H](Cc1cnc[nH]1)C(=O)N[C@@H](CC(=O)O)C(=O)N[C@H](C(=O)N[C@@H](CC(C)C)C(=O)N[C@@H](CCCCN)C(=O)N[C@@H](Cc1ccc(O)cc1)C(=O)NCC(=O)N[C@@H](CCCCN)C(=O)N[C@@H](C)C(=O)N[C@@H](CO)C(N)=O)[C@@H](C)CC [GIHDILKYGKAS]

MIC [6]: 10 µM (≈ 13.6 µg/mL)
MIC [7]: 20 µM (≈ 27.2 µg/mL)
MIC [8]: 20 µM (≈ 27.2 µg/mL)
MIC [9]: 20 µM (≈ 27.2 µg/mL)
MIC [4]: 30 µM (≈ 40.7 µg/mL)
SMILES: CC[C@H](C)[C@H](NC(=O)CN)C(=O)N[C@@H](Cc1cnc[nH]1)C(=O)N[C@@H](CC(=O)O)C(=O)N[C@H](C(=O)N[C@@H](CC(C)C)C(=O)N[C@@H](CCCCN)C(=O)N[C@@H](Cc1ccc(O)cc1)C(=O)NCC(=O)N[C@@H](CCCCN)C(=O)N[C@@H](CCCCN)C(=O)N[C@@H](CO)C(N)=O)[C@@H](C)CC [GIHDILKYGKKS]

MIC [10]: ≥ 45 µM
MIC [11]: ≥ 90 µM
SMILES: CC[C@H](C)[C@H](NC(=O)[C@@H](NC(=O)[C@H](CCCCN)NC(=O)[C@H](CCCCN)NC(=O)[C@H](Cc1ccccc1)NC(=O)[C@@H](N)CCCCN)C(C)C)C(=O)N[C@@H](Cc1c[nH]c2ccccc12)C(=O)N[C@@H](CCCCN)C(=O)N[C@@H](CO)C(=O)N[C@@H](Cc1ccccc1)C(=O)N[C@@H](CC(C)C)C(=O)O [KFKKVIWKSFL]

MIC [16]: 9 µM (≈ 14.3 µg/mL)
MIC [17]: 1 µM (≈ 1.59 µg/mL)
MIC [18]: 5 µM (≈ 7.93 µg/mL)
MIC [19]: 5 µM (≈ 7.93 µg/mL)
SMILES: CC(C)C[C@H](N)C(=O)N[C@@H](CO)C(=O)N[C@@H](Cc1ccccc1)C(=O)N1CCC[C@H]1C(=O)N[C@H](C(=O)N[C@H](C(=O)N[C@@H](CCCCN)C(=O)N[C@H](C(=O)N[C@@H](Cc1ccc(O)cc1)C(=O)N[C@@H](Cc1ccccc1)C(=O)N1CCC[C@H]1C(=O)N[C@@H](Cc1cnc[nH]1)C(=O)N[C@@H](Cc1ccccc1)C(=O)O)[C@@H](C)O)[C@@H](C)O)[C@@H](C)O [LSFPTTKTYFPHF]

MIC [20]: 0.78 µM (≈ 1.03 µg/mL)
MIC [21]: 1.56 µM (≈ 2.07 µg/mL)
MIC [18]: 0.5 µM (≈ 0.662 µg/mL)
SMILES: CC[C@H](C)[C@H](NC(=O)[C@H](CC(C)C)NC(=O)[C@H](CO)NC(=O)[C@H](CC(C)C)NC(=O)[C@H](CC(C)C)NC(=O)[C@@H](N)CCCN=C(N)N)C(=O)N[C@@H](CCCN=C(N)N)C(=O)N[C@@H](CCCCN)C(=O)N[C@@H](CC(C)C)C(=O)N[C@H](C(=O)N[C@H](C(N)=O)[C@@H](C)O)[C@@H](C)CC [RLLSLIRKLIT]

MIC [6]: 8 µM (≈ 12.4 µg/mL)
MIC [7]: 12 µM (≈ 18.7 µg/mL)
MIC [8]: 12 µM (≈ 18.7 µg/mL)
MIC [9]: 10 µM (≈ 15.5 µg/mL)
MIC [4]: 8 µM (≈ 12.4 µg/mL)
SMILES: CC[C@H](C)[C@H](NC(=O)CNC(=O)[C@@H](N)Cc1c[nH]c2ccccc12)C(=O)N[C@@H](Cc1cnc[nH]1)C(=O)N[C@@H](CCCN=C(N)N)C(=O)N[C@H](C(=O)N[C@@H](CC(C)C)C(=O)N[C@@H](CCCCN)C(=O)N[C@@H](Cc1ccc(O)cc1)C(=O)NCC(=O)N[C@@H](CCCCN)C(=O)N1CCC[C@H]1C(=O)N[C@@H](CO)C(=O)O)[C@@H](C)CC [WGIHRILKYGKPS]

Source: DBAASP
